# Reference: patent US20080200470A1, “Diaza- or Thiazadione Derivatives With Neuroprotective Activity” (Schwartz Pharma S.L, priority 2005, published 2008)
# Counter-ions that a name gives are not always drawn. Marks after values point to notes of the source that are not given here.
# How the values were obtained:
# [1] = tested on: primary cultures of rat hippocampus; experiment: Neurotoxicity due to deprivation of trophic factors (serum deprivation), MTT; assay type: cell-based; conditions: serum-free medium 48 hours
# Procedure: (§1) The capacity to prevent neurotoxicity induced by hypoxia/hypoglycaemia in primary cultures of rat hippocampus (E18) was determined. […] After centrifuging at 700 g, the pellet was mechanically redispersed. The density of the cellular suspension was measured and aliquots were taken to culture on Petri dishes, previously coated with poly-lysine, using the same medium. […] Before the hypoxia, the compounds to be studied were added at variable times and concentrations.
# In this case, an Eagle medium (DMEM) modified with 10% of calf serum was initially used and, after 10 days, the cultures were transferred to the DMEM culture deprived of calf serum.
# [2] = tested on: primary cultures of rat hippocampus; experiment: Neurotoxicity induced by hypoxia/hypoglycaemia (oxygen-glucose deprivation), MTT; assay type: cell-based; conditions: glucose-free medium, 2 hours 95% N2/5% CO2, MTT
# Procedure: as §1
# [3] = tested on: cerebral infarction after intraluminal occlusion of the middle cerebral artery (MCA) in rats; experiment: Focal ischemic model in rats, occlusion of the middle cerebral artery; assay type: in vivo; conditions: rat, 40 μg/kg intravenously, 24 hours after ischemic damage
Molecule,melting point [°C],further results
"CCCN(CCC)C1CCc2cccc(O)c2C1 (stereo not shown) [Compound 8-OH-DPAT, 8-OH-DPAT]",–,Protection (%) Serum Deprivation [1]: 44.0 ± 1.4%; Protection (%) Oxygen-glucose deprivation [2]: 54.0 ± 3.5%
(±)-BAYx3702,–,Protection (%) Serum Deprivation [1]: 25.9 ± 2.5%
"CCOc1ccccc1OCCNCCCCN1C(=O)CSC1=O (as salt: salt) [ff, 3-[4-[2-(o-Ethoxyphenoxy)ethylamino]butyl]-2,4-dioxothiazolidine]",70 to 74,–
O=C1c2ccccc2S(=O)(=O)N1CCCCNC[C@H]1CCc2ccccc2O1 [(−)-BAYx3702],–,Protection (%) Serum Deprivation [1]: 31.0 ± 2.9%; Protection (%) Oxygen-glucose deprivation [2]: 77.5 ± 8.6%; Infarcted Volumen Cortical [3]: 271.2 ± 54.7* mm^3; Infarcted Volumen Subcortical [3]: 105.5 ± 9.3 mm^3; Infarcted Volumen Total [3]: 376.7 ± 57.8* mm^3
"CCOc1ccccc1OCCNCCCCCCCCN1C(=O)CSC1=O (as salt: salt) [hh, 3-[8-[2-(o-Ethoxyphenoxy)ethylamino]octyl]-2,4-dioxothiazolidine]",105 to 108,–

# Now from value to molecule, other results behind:
melting point [°C],Molecule,further results
140 to 143,O=C1C2CCCN2C(=O)N1CCCCNCCOc1cccc(Br)c1 (stereo not shown) (as salt: salt),–
125 to 126,O=C1C2CCCN2C(=O)N1CCCCNCc1ccc2ccccc2n1 (stereo not shown),–
98 to 99,"O=C1C2CCCN2C(=O)N1CCCCNCCOc1ccccc1Br (stereo not shown) (as salt: salt) [o, 2-[4-[2-(o-Bromophenoxy)ethylamino]butyl]-1,3-dioxoperhydropyrrolo[1,2-c]imidazole]",–
206 to 208,"O=C1C2CCCCN2C(=O)N1CCCCNCc1ccc2ccccc2n1 (stereo not shown) (as salt: salt) [kk, 2-[4-[(2-Quinolyl)methylamino]butyl]-1,3-dioxoperhydroimidazo[1,5-a]pyridine]",–
115 to 118,CCc1ccccc1OCCNCCCCN1C(=O)C2CCCN2C1=O (stereo not shown) (as salt: salt),–
176 to 188,"O=C1C2CCCCN2C(=O)N1CCCCCCNCc1ccc2ccccc2n1 (stereo not shown) (as salt: salt) [ll, 2-[6-[(2-Quinolyl)methylamino]hexyl]-1,3-dioxoperhydroimidazo[1,5-a]pyridine]",–
